ChEMBL document CHEMBL1201862, “PubChem BioAssay data set” (2004)
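Assay format: 96-well plates, 48-hour exposure. GI50 = concentration required for 50% inhibition of growth.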 Activity calls are given as the source filed them. Rule as the data show it: active = GI50 up to about 1.1 µM and inactive = higher.

Columns and labels:
Test in all cases: growth of human tumour cells (NCI), 48 h
786-0 = test system: 786-0
DU-145 = test system: DU-145
Hs-578T = test system: Hs-578T
IGROV-1 = test system: IGROV-1
M14 = test system: M14
MCF7 = test system: MCF7
MDA-MB-231 = test system: MDA-MB-231
MDA-MB-435 = test system: MDA-MB-435
MDA-N = test system: MDA-N
MOLT-4 = test system: MOLT-4
NCI/ADR-RES = test system: NCI/ADR-RES
PC-3 = test system: PC-3
RXF 393 = test system: RXF 393
SF-295 = test system: SF-295
SK-MEL-5 = test system: SK-MEL-5
SK-OV-3 = test system: SK-OV-3
T47D = test system: T47D
BT-549 = test system: BT-549
OVCAR-5 = test system: OVCAR-5

SMILES	GI50 (786-0)	GI50 (DU-145)	GI50 (Hs-578T)	GI50 (IGROV-1)	GI50 (M14)	GI50 (MCF7)	GI50 (MDA-MB-231)	GI50 (MDA-MB-435)	GI50 (MDA-N)	GI50 (MOLT-4)	GI50 (NCI/ADR-RES)	GI50 (PC-3)	GI50 (RXF 393)	GI50 (SF-295)	GI50 (SK-MEL-5)	GI50 (SK-OV-3)	GI50 (T47D)	GI50 (BT-549)	GI50 (OVCAR-5)
Cc1cc2c3c(c1)CCCN3CCC2	> 10 µM (inactive)	> 10 µM (inactive)	> 10 µM (inactive)	> 10 µM (inactive)	> 10 µM (inactive)	> 10 µM (inactive)	> 10 µM (inactive)	> 10 µM (inactive)	> 10 µM (inactive)	> 10 µM (inactive)	> 10 µM (inactive)	> 10 µM (inactive)	> 10 µM (inactive)	> 10 µM (inactive)	> 10 µM (inactive)	> 10 µM (inactive)	> 10 µM (inactive)		
O=C(O)/C=N\N=c1[nH]c2ccccc2[nH]1	> 100 µM (inactive)	> 100 µM (inactive)	> 100 µM (inactive)	> 100 µM (inactive)	> 100 µM (inactive)	49.2 µM (inactive)	> 100 µM (inactive)	> 100 µM (inactive)	> 100 µM (inactive)	> 100 µM (inactive)	> 100 µM (inactive)	> 100 µM (inactive)		> 100 µM (inactive)	> 100 µM (inactive)	> 100 µM (inactive)	> 100 µM (inactive)	> 100 µM (inactive)	> 100 µM (inactive)
COc1ccc(N[C@H](C[S+]([O-])c2ccc(C)cc2)C(F)(F)C(F)(F)F)cc1 (stereo partly drawn)	65.8 µM (inactive)	> 100 µM (inactive)	36.6 µM (inactive)	> 100 µM (inactive)	97.3 µM (inactive)	> 100 µM (inactive)		> 100 µM (inactive)	> 100 µM (inactive)	> 100 µM (inactive)	> 100 µM (inactive)		4.21 µM (inactive)	62.4 µM (inactive)	68.1 µM (inactive)	44.1 µM (inactive)	14.1 µM (inactive)	85.1 µM (inactive)	> 100 µM (inactive)
CCCCOc1ccc2c(c1)CC[C@@H]1[C@@H]2CC[C@]2(C)C(=O)N(CCCC)C(=O)C[C@@H]12		> 100 µM (inactive)	> 100 µM (inactive)	> 100 µM (inactive)	> 100 µM (inactive)	> 100 µM (inactive)	> 100 µM (inactive)	> 100 µM (inactive)	> 100 µM (inactive)	30.4 µM (inactive)	> 100 µM (inactive)	25.1 µM (inactive)		> 100 µM (inactive)	26.3 µM (inactive)	> 100 µM (inactive)	> 100 µM (inactive)	87.9 µM (inactive)	> 100 µM (inactive)
O=C(CN1CCN(Cc2ccccc2)CC1)c1ccc2[nH]c(=O)oc2c1	> 100 µM (inactive)	> 100 µM (inactive)		99.3 µM (inactive)	> 100 µM (inactive)	> 100 µM (inactive)	> 100 µM (inactive)	> 30.5 µM (inactive)	> 100 µM (inactive)	> 100 µM (inactive)	> 100 µM (inactive)	> 100 µM (inactive)	> 100 µM (inactive)	> 100 µM (inactive)	> 100 µM (inactive)	> 100 µM (inactive)	> 100 µM (inactive)	> 100 µM (inactive)	> 100 µM (inactive)
COC(=O)c1cccc2c3ccccc3c3ccccc3c12	42.8 µM (inactive)			62.8 µM (inactive)	28.5 µM (inactive)					24.5 µM (inactive)			24 µM (inactive)	26.6 µM (inactive)	30.1 µM (inactive)	37.2 µM (inactive)			49.1 µM (inactive)
NCCCCNOCCCN		> 100 µM (inactive)	> 100 µM (inactive)	> 100 µM (inactive)	> 100 µM (inactive)	> 100 µM (inactive)		> 100 µM (inactive)	> 100 µM (inactive)	> 100 µM (inactive)	> 100 µM (inactive)	> 100 µM (inactive)	> 100 µM (inactive)	> 100 µM (inactive)	> 100 µM (inactive)	> 100 µM (inactive)	> 100 µM (inactive)	> 100 µM (inactive)	42.8 µM (inactive)
O=C(/C=C1\Nc2ncccc2N=C1CC(=O)c1ccccc1)c1ccccc1		12.9 µM (inactive)	15.6 µM (inactive)	2.72 µM (inactive)	7.35 µM (inactive)	3.61 µM (inactive)	10.6 µM (inactive)	5.93 µM (inactive)	7.52 µM (inactive)	3.4 µM (inactive)	4.56 µM (inactive)	10.1 µM (inactive)		4.44 µM (inactive)	4.16 µM (inactive)	12 µM (inactive)	9.31 µM (inactive)	2.71 µM (inactive)	23.5 µM (inactive)
O=[N+]([O-])c1ccc(S[C@@H]2[C@H]3c4c(-c5ccccc5)[nH]c(-c5ccccc5)c4[C@@H]2C[C@H]3Cl)cc1	2.62 µM (inactive)	3.31 µM (inactive)	5.08 µM (inactive)	2.79 µM (inactive)	3.23 µM (inactive)	2.31 µM (inactive)	4.8 µM (inactive)	3.58 µM (inactive)	2.89 µM (inactive)		2.87 µM (inactive)	3.8 µM (inactive)	0.938 µM (active)	3.71 µM (inactive)	4.66 µM (inactive)	9.98 µM (inactive)	1.93 µM (inactive)	3.66 µM (inactive)	9.95 µM (inactive)
O=C1C(=O)N(C2CCCCC2)C(=S)N1C1CCCCC1	> 100 µM (inactive)	> 100 µM (inactive)	> 100 µM (inactive)	> 100 µM (inactive)			> 100 µM (inactive)	> 100 µM (inactive)	> 100 µM (inactive)	> 100 µM (inactive)	> 100 µM (inactive)	> 100 µM (inactive)	> 100 µM (inactive)	> 100 µM (inactive)	> 100 µM (inactive)	> 100 µM (inactive)	> 100 µM (inactive)		> 100 µM (inactive)
COC(=O)C1=C(O)C(C(=O)OC)[C@@]2(O)[C@@H](C(=O)OC)[C@H](C)C[C@@H]1[C@@H]2C(=O)OC (stereo partly drawn)		20.2 µM (inactive)	19.9 µM (inactive)		20.6 µM (inactive)	34.8 µM (inactive)	14.1 µM (inactive)	14.7 µM (inactive)	15.2 µM (inactive)	28.3 µM (inactive)			15.4 µM (inactive)			26 µM (inactive)	46.8 µM (inactive)	32.9 µM (inactive)	30.5 µM (inactive)
CC(C)(C)N(Cc1ccoc1)C(=O)/C=C\[S+]([O-])c1ccccc1 (stereo not drawn)	19.8 µM (inactive)	12.5 µM (inactive)	28.4 µM (inactive)	15 µM (inactive)	17.2 µM (inactive)	15.6 µM (inactive)	20.2 µM (inactive)	6.79 µM (inactive)	11.5 µM (inactive)	22.5 µM (inactive)	21.2 µM (inactive)	10.6 µM (inactive)		29.9 µM (inactive)	13.4 µM (inactive)	24 µM (inactive)	14.6 µM (inactive)	10.7 µM (inactive)	25.2 µM (inactive)
Cc1nc2ccc(F)cc2c2c1CCS2	78.7 µM (inactive)	> 100 µM (inactive)	43 µM (inactive)	> 100 µM (inactive)		56.4 µM (inactive)	39.9 µM (inactive)	35.8 µM (inactive)		38.1 µM (inactive)	95.1 µM (inactive)	41.1 µM (inactive)	18.5 µM (inactive)	94.4 µM (inactive)	30.3 µM (inactive)		33.7 µM (inactive)	54.8 µM (inactive)	
CSc1ccccc1P(c1ccccc1SC)c1ccccc1SC	> 100 µM (inactive)	> 100 µM (inactive)	98.2 µM (inactive)		> 100 µM (inactive)	> 100 µM (inactive)	> 100 µM (inactive)	> 100 µM (inactive)	> 100 µM (inactive)	> 100 µM (inactive)	> 100 µM (inactive)			> 100 µM (inactive)	> 100 µM (inactive)	> 100 µM (inactive)	2.62 µM (inactive)	> 100 µM (inactive)	> 100 µM (inactive)
CN(/N=C/c1ccc(Cl)cc1)C1=NCCCCN1	99.8 µM (inactive)	> 100 µM (inactive)	> 100 µM (inactive)	> 100 µM (inactive)	24.6 µM (inactive)	> 100 µM (inactive)	35 µM (inactive)	72.1 µM (inactive)	> 100 µM (inactive)	26.7 µM (inactive)	> 100 µM (inactive)	32.9 µM (inactive)		> 100 µM (inactive)	53.2 µM (inactive)	> 100 µM (inactive)	> 100 µM (inactive)	> 100 µM (inactive)	> 100 µM (inactive)
O=C1CC2CC3OC3[C@H]3c4cc5c(cc4C(=O)N1C23)OCO5 (stereo partly drawn)				> 100 µM (inactive)	> 100 µM (inactive)					> 100 µM (inactive)				> 100 µM (inactive)		> 100 µM (inactive)			> 100 µM (inactive)
COc1c(OC)c(OC)c2c(c1OC)c(=O)c1ccccc1n2C [MELICOPICINE]	> 100 µM (inactive)	> 100 µM (inactive)	> 100 µM (inactive)	> 100 µM (inactive)	> 100 µM (inactive)	> 100 µM (inactive)	> 100 µM (inactive)	> 100 µM (inactive)	> 100 µM (inactive)	51.1 µM (inactive)	73.5 µM (inactive)	> 100 µM (inactive)		> 100 µM (inactive)	> 100 µM (inactive)	> 100 µM (inactive)	54.3 µM (inactive)	> 100 µM (inactive)	> 100 µM (inactive)
